Experimental findings from ChEMBL document CHEMBL1125348, “The first mechanism-based inactivators for angiotensin-converting enzyme” (J Med Chem, 1992) are described below.

What all share (type): protein assay
Data set [1] concerns N#CCC(=O)N[C@@H](Cc1ccccc1)C(=O)N[C@@H](Cc1ccccc1)C(=O)O. Put plainly: Km for angiotensin I converting enzyme.
Data set [2] addresses T1, Angiotensin-converting enzyme (Homo sapiens, UniProt P12821+Q9BYF1). In words: First order rate constant for angiotensin I converting enzyme.
The target of data set [3] is T1, Angiotensin-converting enzyme. In words: Inhibition of hydrolysis of N-[3-(2-furyl)acryloyll-Phe-Gly-Gly7 by angiotensin I converting enzyme.
The target is the same in data set [4]. In words: kinact for angiotensin I converting enzyme.

T1 sequence (P12821 whole entry, looked up): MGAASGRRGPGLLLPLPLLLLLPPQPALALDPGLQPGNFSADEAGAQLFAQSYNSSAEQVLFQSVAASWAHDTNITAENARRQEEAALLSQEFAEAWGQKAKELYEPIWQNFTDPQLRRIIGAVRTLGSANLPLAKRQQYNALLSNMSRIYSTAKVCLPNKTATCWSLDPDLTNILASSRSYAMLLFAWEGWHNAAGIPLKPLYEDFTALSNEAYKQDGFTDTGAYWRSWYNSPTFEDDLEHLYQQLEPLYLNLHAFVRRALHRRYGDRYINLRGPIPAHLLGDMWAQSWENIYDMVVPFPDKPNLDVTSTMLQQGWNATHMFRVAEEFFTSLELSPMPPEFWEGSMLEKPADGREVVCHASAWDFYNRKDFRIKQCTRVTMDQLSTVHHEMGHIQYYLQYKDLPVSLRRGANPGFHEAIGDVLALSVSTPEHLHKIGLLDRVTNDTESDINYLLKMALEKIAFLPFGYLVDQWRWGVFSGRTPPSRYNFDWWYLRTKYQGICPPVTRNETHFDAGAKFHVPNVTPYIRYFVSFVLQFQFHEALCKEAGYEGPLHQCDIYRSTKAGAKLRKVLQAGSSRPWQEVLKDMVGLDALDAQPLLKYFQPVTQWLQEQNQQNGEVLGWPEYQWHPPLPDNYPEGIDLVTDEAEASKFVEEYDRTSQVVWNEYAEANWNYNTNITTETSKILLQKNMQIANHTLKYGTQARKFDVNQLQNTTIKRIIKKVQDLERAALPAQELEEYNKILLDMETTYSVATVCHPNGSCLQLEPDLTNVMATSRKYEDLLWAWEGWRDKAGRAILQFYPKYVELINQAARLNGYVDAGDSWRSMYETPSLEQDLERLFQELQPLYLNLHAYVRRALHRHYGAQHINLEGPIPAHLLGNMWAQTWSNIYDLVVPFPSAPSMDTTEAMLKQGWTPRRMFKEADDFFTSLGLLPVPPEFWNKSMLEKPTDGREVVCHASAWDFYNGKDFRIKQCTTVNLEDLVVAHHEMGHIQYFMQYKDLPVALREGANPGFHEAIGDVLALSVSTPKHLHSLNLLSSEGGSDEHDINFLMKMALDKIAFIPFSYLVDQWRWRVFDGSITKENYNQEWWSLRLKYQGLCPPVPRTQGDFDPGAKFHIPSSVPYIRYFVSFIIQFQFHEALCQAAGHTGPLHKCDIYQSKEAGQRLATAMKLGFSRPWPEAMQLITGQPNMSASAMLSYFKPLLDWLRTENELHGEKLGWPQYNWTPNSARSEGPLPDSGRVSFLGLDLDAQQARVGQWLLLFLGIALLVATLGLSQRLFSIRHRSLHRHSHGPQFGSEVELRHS
T1 sequence (Q9BYF1 whole entry, looked up): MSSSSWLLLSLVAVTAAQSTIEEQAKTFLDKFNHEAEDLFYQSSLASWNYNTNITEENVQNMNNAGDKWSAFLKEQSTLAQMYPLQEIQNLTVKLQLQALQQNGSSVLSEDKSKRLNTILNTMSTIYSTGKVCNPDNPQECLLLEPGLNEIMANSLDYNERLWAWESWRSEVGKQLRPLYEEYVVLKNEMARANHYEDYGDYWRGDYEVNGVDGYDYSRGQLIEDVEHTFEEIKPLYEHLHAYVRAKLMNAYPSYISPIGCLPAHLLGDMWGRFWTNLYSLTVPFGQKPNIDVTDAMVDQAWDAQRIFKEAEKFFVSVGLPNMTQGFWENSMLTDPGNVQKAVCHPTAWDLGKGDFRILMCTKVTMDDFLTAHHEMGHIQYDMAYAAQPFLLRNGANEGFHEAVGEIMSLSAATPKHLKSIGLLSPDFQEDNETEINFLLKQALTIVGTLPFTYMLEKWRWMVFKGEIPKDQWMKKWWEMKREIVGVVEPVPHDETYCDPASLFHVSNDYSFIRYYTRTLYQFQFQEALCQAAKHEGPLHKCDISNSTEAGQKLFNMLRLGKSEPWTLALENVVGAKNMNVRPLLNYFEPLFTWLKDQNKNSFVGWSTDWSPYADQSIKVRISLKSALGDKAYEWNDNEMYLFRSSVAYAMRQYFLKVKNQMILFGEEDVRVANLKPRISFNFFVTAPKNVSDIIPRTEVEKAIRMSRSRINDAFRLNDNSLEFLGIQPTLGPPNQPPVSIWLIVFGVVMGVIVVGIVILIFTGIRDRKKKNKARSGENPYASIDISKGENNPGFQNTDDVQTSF
Chain of Angiotensin-converting enzyme (Homo sapiens) (Q9BYF1 whole entry, looked up): as above
Chain of Angiotensin-converting enzyme (Homo sapiens) (P12821 whole entry, looked up): as the sequence (P12821 whole entry, looked up) above

Usually Km stands for the concentration of substrate that gives half-maximal velocity. For the compound “Angiotensin-converting enzyme (Homo sapiens) (from UniProt P12821+Q9BYF1)”, the Km in data set [1] came to 10.5 mM. `C[C@H](NC(=O)CC#N)C(=O)N[C@@H](Cc1ccccc1)C(=O)O` returned a k obs in data set [2] of 0.000251 s⁻¹.

The compound `CC(C)C[C@H](NC(=O)[C@H](C)NC(=O)CC#N)C(=O)O` returned a k obs in data set [2] of 0.000501 s⁻¹. For orientation: Ki means the equilibrium dissociation constant of an inhibitor or competing ligand from its target. Higher therefore signals weaker binding. The compound `N#CCC(=O)N[C@@H](Cc1ccccc1)C(=O)N[C@@H](Cc1ccccc1)C(=O)O` yielded an inhibition constant Ki in data set [3] of 65 µM. The compound also gave a k obs in data set [2] of 0.000835 s⁻¹. For the same compound, the K inact in data set [4] is 0.08 min⁻¹.
